From patent US20210161997A1, “TREATING DISEASES VIA TARGETED MODULATION OF GENE SIGNALING NETWORKS” (Camp4 Therapeutics Corporation, priority 2018, published 2021)

Experiments:
Type in all cases: cell-based
PCSK9 = assay: RNA-seq of PCSK9 expression in compound-treated primary human hepatocytes
Description: (§1) Human hepatocytes were obtained from two donors from Massachusetts General Hospital, namely MGH54 and MGH63, and one donor from Lonza, namely HUM4111B. Cryopreserved hepatocytes were cultured in plating media for 16 hours, transferred to maintenance media for 4 hours. Cultured on serum-free media for 2 hours, then a compound was added. The hepatocytes were maintained on the serum-free media for 16 hours prior to gene expression analysis. Primary human hepatocytes were stored in the vapor phase of a liquid nitrogen freezer (about −130° C.).
(§2) Human hepatocytes cultured as described above were plated in 24-well format, adding 375,000 cells per well in a volume of 500 ul plating medium. Four hours before treatment, cells were washed with PBS and the medium was changed to either: fresh maintenance medium (complete) or modified maintenance medium.
(§3) Compound stocks were prepared at 1000× final concentration and added in a 2-step dilution to the medium to reduce risk of a compound precipitating out of solution when added to the cells, and to ensure reasonable pipetting volumes. One at a time, each compound was first diluted 10-fold in warm (about 37° C.) modified maintenance medium (initial dilution=ID), mixed by vortexing, and the ID was diluted 100-fold into the cell culture (e.g. 5.1 ul into 1 well of a 24-well plate containing 0.5 mL medium). The plate was mixed by carefully swirling and after all wells were treated and returned to the incubator overnight. If desired, separate plates/wells were treated with vehicle-only controls and/or positive controls. If using multi-well plates, controls were included on each plate. After about 18 hours, cells were harvested for further analysis, e.g., ChIP-seq, RNA-seq, ATAC-seq, etc.
(§4) This protocol is a modified version of the following protocols: MagMAX mirVana Total RNA Isolation Kit User Guide (Applied Biosystems #MAN0011131 Rev B.0), NEBNext Poly(A) mRNA Magnetic Isolation Module (E7490), and NEBNext Ultra Directional RNA Library Prep Kit for Illumina (E7420) (New England Biosystems #E74901).
(§5) The MagMAX mirVana kit instructions (the section titled “Isolate RNA from cells” on pages 14-17) were used for isolation of total RNA from cells in culture. Two hundred μl of Lysis Binding Mix was used per well of the multiwell plate containing adherent cells (usually a 24-well plate).
(§6) For mRNA isolation and library prep, the NEBNext Poly(A) mRNA Magnetic Isolation Module and Directional Prep kit was used. RNA isolated from cells above was quantified, and prepared in […] of each sample in 50 μl of nuclease-free water. This protocol may be run in microfuge tubes or in a 96-well plate.
(§7) All pass filter reads from each sample were mapped against the human genome (assembly GRCh38/GCA_000001405.15 “no alt” analysis set merged with hs38d1/GCA_000786075.2) using two pass mapping via STAR version 2.5.3a (alignment parameters alignIntronMin=20; alignIntronMax=1000000; outFilterMismatchNmax=999; outFilterMismatchNoverLmax=0.05; outFilterType=BySJout; outFilterMultimapNmax=20; alignSJoverhangMin=8; alignSJDBoverhangMin=1; alignMatesGapMax=1000000) (Dobin et al., Bioinformatics (2012) 29(1):15-21). Genomic alignments were converted to transcriptome alignments based on reference transcript annotations from the Human GENCODE Gene Set release 24 (Harrow et al., Genome Res. (2012) 22(9): 1760-1774). Using unique and multimapped transcriptomic alignments, gene-level abundance estimates were computed using RSEM version 1.3.0 (Li and Dewey, BMC Bioinformatics (2011) 12:323) in a strand-aware manner, and including confidence interval sampling calculations, to arrive at posterior mean estimates (PME) of abundances (counts and normalized FPKM—fragments per kilobase of exon per million mapped fragments) from the underlying Bayesian model. Standard QC were applied (read integrity, mapping statistics, library complexity, fragment bias) to remove unsatisfactory samples.

ANGPTL3 = assay: RNA-seq of ANGPTL3 expression in compound-treated primary human hepatocytes; settings: for ANGPTL3 Fold Change (Log2): primary human hepatocytes (Table 12)
How it was run: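 Cryopreserved primary human hepatocytes from three donors, plated at 375,000 cells/well, switched to complete or modified maintenance medium, then dosed with compound (stocks at 1000× final) for about 18 h. Poly(A) mRNA was sequenced directionally, mapped to GRCh38 with STAR, and gene-level abundance (counts, FPKM) estimated with RSEM against GENCODE 24.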

LDLR = assay: RNA-seq of LDLR expression in compound-treated primary human hepatocytes
Description: as §1, §2, §3, §4, §5, §6, §7

SERPINC1 = assay: RNA-seq of SERPINC1 expression in compound-treated primary human hepatocytes; settings: significance FPKM ≥1, log 2(fold change) ≥0.5, q-value ≤0.05
Description: Human hepatocytes were obtained from two donors from Massachusetts General Hospital, namely MGH54 and MGH63, and one donor from Lonza, namely HUM4111B. Cryopreserved hepatocytes were cultured in plating media for 16 hours, transferred to maintenance media for 4 hours. Cultured on serum-free media for 2 hours, then a compound was added. The hepatocytes were maintained on the serum-free media for 16 hours prior to gene expression analysis. Primary human hepatocytes were stored in the vapor phase of a liquid nitrogen freezer (about -130° C.). Human hepatocytes cultured as described above were plated in 24-well format, adding 375,000 cells per well in a volume of 500 ul plating medium. Four hours before treatment, cells were washed with PBS and the medium was changed to either: fresh maintenance medium (complete) or modified maintenance medium. Compound stocks were prepared at 1000× final concentration and added in a 2-step dilution to the medium to reduce risk of a compound precipitating out of solution when added to the cells, and to ensure reasonable pipetting volumes. […] The plate was mixed by carefully swirling and after all wells were treated and returned to the incubator overnight. If desired, separate plates/wells were treated with vehicle-only controls and/or positive controls. If using multi-well plates, controls were included on each plate. After about 18 hours, cells were harvested for further analysis, e.g., ChIP-seq, RNA-seq, ATAC-seq, etc. This protocol is a modified version of the following protocols: MagMAX mirVana Total RNA Isolation Kit User Guide (Applied Biosystems #MAN0011131 Rev B.0), NEBNext Poly(A) mRNA Magnetic Isolation Module ([…]), and NEBNext Ultra Directional RNA Library Prep Kit for Illumina ([…]) (New England Biosystems #E74901). […] Two hundred μl of Lysis Binding Mix was used per well of the multiwell plate containing adherent cells (usually a 24-well plate). For mRNA isolation and library prep, the NEBNext Poly(A) mRNA Magnetic Isolation Module and Directional Prep kit was used. RNA isolated from cells above was quantified, and prepared in […] of each sample in 50 μl of nuclease-free water. This protocol may be run in microfuge tubes or in a 96-well plate. […] Genomic alignments were converted to transcriptome alignments based on reference transcript annotations from the Human GENCODE Gene Set release 24 (Harrow et al., Genome Res. […] Using unique and multimapped transcriptomic alignments, gene-level abundance estimates were computed using RSEM version 1.3.0 (Li and Dewey, BMC Bioinformatics (2011) 12:323) in a strand-aware manner, and including confidence interval sampling calculations, to arrive at posterior mean estimates (PME) of abundances (counts and normalized FPKM-fragments per kilobase of exon per million mapped fragments) from the underlying Bayesian model. Standard QC were applied (read integrity, mapping statistics, library complexity, fragment bias) to remove unsatisfactory samples. Differential gene expression was computed using the negative binomial model implemented by DESeq2 version 1.16.1 (Love et al., Genome Biol. (2014) 15(12):550). […] RNA-seq signals were also normalized by read depth and visualized using the UCSC browser. To identify small molecules that modulate target gene expression, primary human hepatocytes were prepared as a monoculture, and at least one small molecule compound was applied to the cells. RNA-seq was performed to determine the effects of the compounds on the expression of the target genes in hepatocytes. Fold change was calculated by dividing the level of expression in the cell system that had been perturbed by the level of expression in an unperturbed system.

UGT1A1 = assay: RNA-seq of UGT1A1 expression in compound-treated primary human hepatocytes
How it was run: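 Cryopreserved primary human hepatocytes from three donors were plated in 24-well format, then treated with compound diluted from 1000× stocks in serum-free maintenance medium for about 16–18 h. Poly(A) RNA-seq log2 fold change was computed against vehicle/pan-experiment controls. Significance required FPKM ≥1, log2FC ≥0.5 and q ≤0.05.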

SLC37A4 = assay: RNA-seq of SLC37A4 expression in compound-treated primary human hepatocytes
Description: as §1, §2, §3, §4, §5, §6, §7

APOL1 = assay: RNA-seq of APOL1 expression in compound-treated primary human hepatocytes
Description: as §1, §2, §3, §4, §5, §6, §7

FN1 = assay: RNA-seq of FN1 expression in compound-treated primary human hepatocytes; settings: perturbed vs unperturbed, significance FPKM ≥1, log 2(fold change) ≥0.5, q-value ≤0.05
Description: as §1, §2, §3, §4, §5, §6, §7

NOTCH2 = assay: RNA-seq of NOTCH2 expression in compound-treated primary human hepatocytes; settings: primary human hepatocytes
How it was run: (§8)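 Cryopreserved primary human hepatocytes from three donors, switched to serum-free medium 2 h before compound addition, were harvested about 18 h after treatment. Poly(A) mRNA was sequenced and aligned to GENCODE release 24, with DESeq2 negative binomial differential expression. Fold change is the treated level over the unperturbed level.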

JAG1 = assay: RNA-seq of JAG1 expression in compound-treated primary human hepatocytes
How it was run: as §8

MECP2 mRNA [1] = assay: MECP2 mRNA in primary human hepatocytes (donor 1, donor 2); settings: human hepatocytes donor-2, average fold change
Description: as §1, §2, §3
Samples were amplified using Taqman probes from ThermoFisher.

SERPINC1 mRNA = assay: Quantitative PCR of SERPINC1 mRNA in primary human hepatocytes (Lonza Hu4282) treated with compounds; settings: 72 h treatment, HU4282 primary human hepatocytes, relative to DMSO control (FIG. 7)
MECP2 mRNA [2] = assay: MECP2 mRNA in stellate cells; settings: average fold change

| Compound | PCSK9 Fold Change (Log2) (PCSK9) | ANGPTL3 Fold Change (Log2) (ANGPTL3) | LDLR Fold Change (Log2) (LDLR) | SERPINC1 Fold Change (Log2) (SERPINC1) | UGT1A1 Fold Change (Log2) (UGT1A1) | further results |
| --- | --- | --- | --- | --- | --- | --- |
| C=CC(=O)Nc1cccc(Nc2nc(Nc3ccc(N4CCN(C(C)=O)CC4)cc3OC)ncc2C(F)(F)F)c1 [CO-1686 (Rociletinib), Rociletinib] | 0 | −0.67 | 0.51 |  |  |  |
| COCCOc1ccc2c(c1)ncn2-c1ccc2cccc(N3CCC(N)CC3)c2n1 [CP-673451] |  |  |  | 2.53 | 1.82 | SLC37A4 Fold Change (Log2) (SLC37A4): 1.17 Log2 |
| C[C@@H](Oc1cc(-c2cnn(C3CCNCC3)c2)cnc1N)c1c(Cl)ccc(F)c1Cl [Crizotinib] |  |  |  |  | 1.18 | APOL1 Fold Change (Log2) (APOL1; RNA-seq, primary human hepatocytes): −0.56 Log2; FN1 Fold Change (Log2) (FN1): −1.45 Log2 |
| CS[C@H]1SC[C@H]2C(=O)N(C)[C@@H](C(C)C)C(=O)OC[C@@H](NC(=O)c3cnc4ccccc4n3)C(=O)N[C@@H](C)C(=O)N(C)[C@@H]1C(=O)N(C)[C@@H](C(C)C)C(=O)OC[C@@H](NC(=O)c1cnc3ccccc3n1)C(=O)N[C@@H](C)C(=O)N2C [Echinomycin] |  |  |  | 2.29 | 1.10 | SLC37A4 Fold Change (Log2) (SLC37A4): 1.59 Log2 |
| COc1cccc2c1C(=O)c1c(O)c3c(c(O)c1C2=O)C[C@@](O)(/C(CO)=N/NC(=O)CCCCCN1C(=O)C=CC1=O)C[C@@H]3O[C@H]1C[C@H](N)[C@H](O)[C@H](C)O1 [INNO-206 (aldoxorubicin), aldoxorubicin] |  |  |  | 1.00 |  | NOTCH2 Fold Change (Log2) (NOTCH2): 0 Log2; JAG1 Fold Change (Log2) (JAG1; primary human hepatocytes): 0.84 Log2; Significant modulation of JAG1 (in words) (JAG1; summary of Table 6): significantly modulate only JAG1 |
| O=c1cc(N2CCOCC2)oc2c(-c3ccccc3)cccc12 [LY294002] | −0.51 | 0 | 0.48 |  | 1.36 |  |
| COc1ccc(-c2cc3c(C)nc(N)nc3n([C@H]3CC[C@H](OCCO)CC3)c2=O)cn1 [PF-04691502] |  |  |  |  |  | APOL mRNA linear fold change (APOL1; RNAseq, 10 uM dose (Table 20)): 0.5141; Human hep donor-2 MECP2 (Avg_FC) 1 uM (MECP2 mRNA [1]; compound 1 uM): 1.13; Human hep donor-2 MECP2 (Avg_FC) 10 uM (MECP2 mRNA [1]; compound 10 uM): 1.88; SERPINC1 mRNA change in response to compound (SERPINC1 mRNA): dose dependent upregulation; ANGPTL3-LINEAR FOLD CHANGE (ANGPTL3; additional compounds (Table 13), linear fold change): 0.4506; Stellate MECP2 (Avg_FC) 1 uM (MECP2 mRNA [2]; compound 1 uM): 1.27; Stellate MECP2 (Avg_FC) 10 uM (MECP2 mRNA [2]; compound 10 uM): 2.78 |
| NS(=O)(=O)C#Cc1ccccc1 [Pifithrin-u, Pifithrin-μ] | −0.54 | −0.46 | 0.60 | 0.79 |  |  |
| COCCOc1ccc(N2CCN(CCn3ncc4c3nc(N)n3nc(-c5ccco5)nc43)CC2)cc1 [Preladenant] | 0 | −0.73 | 1.07 |  |  |  |
| CN1CCC(CNc2ccc3ncc(-c4cccc(OC(F)(F)F)c4)n3n2)CC1 [SGI-1776] | 0 | −0.52 | 0.48 |  |  |  |
| CNC(=O)Nc1ccc(-c2nc(N3CC4CCC(C3)O4)c3cnn(C4CCC5(CC4)OCCO5)c3n2)cc1 [WYE-125132 (WYE-132)] | −0.91 | −0.42 | 1.46 |  |  |  |
